Where two headings read alike, the source gives them in different places.
What was measured:
[1] = test system: KLE cells; experiment: Cell viability by WST-1 assay in KLE cells; format: cell-based; details: Homo sapiens, pristimerin 72 hours
Method: (§1) Cell viability was determined by WST-1 assay. Cells were seeded into 96-well plates (1×10^4 cells per well) then treated with cisplatin (Fresenius Kabi Oncology Ltd, Haryana, India) or the combination of cisplatin with pristimerin in solution (Cayman Chemical, Ann Arbor, Mich.). Cell viability was evaluated using the cell proliferation reagent WST-1 (Roche, Germany) according to the manufacturer's protocol. The absorbance was measured with a micro-plate reader (BioRad). Data were calculated as percent (%) viability relative to untreated control, which was set at 100%.
as §1, with “Ltd.,” for “Ltd,”, “Absorbance” for “The absorbance”, “microplate” for “micro-plate”

[2] = test system: Hec50 cells; experiment: Cell viability by WST-1 assay in Hec50 cells; format: cell-based; details: pristimerin 72 hours
Method: as §1
as §1, with “Ltd.,” for “Ltd,”, “Absorbance” for “The absorbance”, “microplate” for “micro-plate”

[3] = Solubility and pharmacokinetics (statement); details: pristimerin in solution
[4] = target: P-glycoprotein (P-gp) efflux transporter (Homo sapiens, UniProt P08183); details: not told; cited from earlier work
Chain of P-glycoprotein (P-gp) efflux transporter (P08183 whole entry): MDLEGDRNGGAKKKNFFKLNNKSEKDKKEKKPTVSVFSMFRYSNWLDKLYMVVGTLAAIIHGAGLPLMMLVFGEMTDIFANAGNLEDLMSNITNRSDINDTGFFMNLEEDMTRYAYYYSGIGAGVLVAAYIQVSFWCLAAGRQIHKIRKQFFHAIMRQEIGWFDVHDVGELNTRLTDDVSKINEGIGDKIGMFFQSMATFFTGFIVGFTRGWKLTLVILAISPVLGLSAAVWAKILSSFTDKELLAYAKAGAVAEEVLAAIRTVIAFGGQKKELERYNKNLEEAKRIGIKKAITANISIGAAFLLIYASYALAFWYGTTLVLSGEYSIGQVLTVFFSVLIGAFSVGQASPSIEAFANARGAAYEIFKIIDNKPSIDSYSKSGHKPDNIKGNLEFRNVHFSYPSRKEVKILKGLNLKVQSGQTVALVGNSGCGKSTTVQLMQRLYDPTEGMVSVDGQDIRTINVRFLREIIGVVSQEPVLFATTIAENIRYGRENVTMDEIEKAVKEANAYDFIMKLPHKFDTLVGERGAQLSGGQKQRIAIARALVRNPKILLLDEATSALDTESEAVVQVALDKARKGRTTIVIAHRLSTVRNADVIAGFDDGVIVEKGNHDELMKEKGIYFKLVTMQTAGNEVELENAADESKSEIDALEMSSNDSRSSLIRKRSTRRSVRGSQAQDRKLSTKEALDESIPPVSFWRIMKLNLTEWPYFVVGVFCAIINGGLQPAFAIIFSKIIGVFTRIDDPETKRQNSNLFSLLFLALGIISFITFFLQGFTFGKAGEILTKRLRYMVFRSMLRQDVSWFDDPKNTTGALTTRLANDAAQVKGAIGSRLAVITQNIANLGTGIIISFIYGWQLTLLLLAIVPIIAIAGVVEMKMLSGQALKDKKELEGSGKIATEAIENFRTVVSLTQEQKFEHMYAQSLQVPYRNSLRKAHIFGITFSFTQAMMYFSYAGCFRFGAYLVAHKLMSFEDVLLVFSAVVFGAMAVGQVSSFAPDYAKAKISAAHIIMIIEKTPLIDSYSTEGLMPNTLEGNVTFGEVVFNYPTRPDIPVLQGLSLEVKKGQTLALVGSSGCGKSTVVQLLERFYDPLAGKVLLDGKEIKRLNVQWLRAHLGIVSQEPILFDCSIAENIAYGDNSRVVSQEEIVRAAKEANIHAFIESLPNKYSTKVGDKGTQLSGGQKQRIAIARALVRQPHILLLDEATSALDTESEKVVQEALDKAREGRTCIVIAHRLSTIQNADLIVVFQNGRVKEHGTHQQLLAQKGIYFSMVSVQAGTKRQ

[5] = test system: MDA-MB-231 cells; experiment: Cell viability by WST-1 assay in MDA-MB-231 cells; format: cell-based; details: Homo sapiens, pristimerin 72 hours
Method: as §1
as §1, with “Ltd.,” for “Ltd,”, “Absorbance” for “The absorbance”, “microplate” for “micro-plate”

[6] = previous reported; cited from earlier work
[7] = test system: PDX1 tumors; experiment: Patient-derived xenograft (PDX1) model of endometrial cancer, tumor growth; format: in vivo; details: PDX1 mice, twice a week for 4 weeks; compared to control PLGA nanoparticles (combination: compared to all other groups)
Method: Patient-derived xenograft (PDX) studies: A PDX model of endometrial cancer (PDX1) has been previously described (Luo et al., 2010). NOD.Cg-Prkdcscid Il2rgtm1Wjl/SzJ (NSG, Jackson Laboratories, Bar Harbor, Me.) immunodeficient female mice at 8 weeks of age were injected with passage 3 of PDX1 tumor tissue (10 mg/100 μl medium) into the right flank subcutaneously. The mice were randomly divided into 4 groups, with 5 mice per drug treated group, and 4 mice comprised the empty nanoparticle control group. Treatment was started on day 15 after engraftment of cells. The dose of pristimerin delivered in nanoparticles was 60 μg for each mouse and was administered by intravenous injection (IV) injection twice a week for a total of 4 weeks. The dose of cisplatin was […] for each mouse and was administered by intraperitoneal (IP) injection twice a week for a total of 4 weeks. After 2 weeks of treatment, tumors were measured weekly using calipers, and volumes were calculated using the formula length×width^2/2.
All animal studies were performed under animal protocols #7051085 approved by the University of Iowa Institutional Animal Care and Use Committee (Iowa City, Iowa). MTDH knockout mice were generated as described previously (Meng et al., 2015). […] After 2 weeks of treatment, tumors were measured weekly using calipers, and volumes were calculated using the formula […].

In the case of `COC(=O)[C@]1(C)CC[C@]2(C)CC[C@]3(C)C4=CC=C5C(=CC(=O)C(O)=C5C)[C@]4(C)CC[C@@]3(C)[C@@H]2C1` [pristimerin, Pristimerin], the IC50 [1] is reported as less than 1000 nM, the IC50 [2] is reported as less than 1000 nM and the solubility and pharmacokinetics [3] is reported as “poor”. For the same compound, the “substrate to P-gp” value [4] was “substrate” and the IC50 [5] was less than 1000 nM.

For `CC1=C(O)C(=O)C=C2C1=CC=C1[C@@]2(C)CC[C@@]2(C)[C@@H]3C[C@](C)(C(=O)O)CC[C@]3(C)CC[C@]12C` [celastrol], the solubility and pharmacokinetics [6] is listed as “poor”.

In the case of `N.N.[Cl][Pt][Cl]` [cisplatin], the tumor growth [7] is reported as “significantly inhibited”.

Reference: patent US20220241214A1, “NAN[…] W METHIDES AND COMPOSITIONS FOR USE” (priority 2019, published 2022)
